Measured values: patent US9023789B2, “Amylin analogs and pharmaceutical compositions thereof” (Novo Nordisk A/S, priority 2012, dated 2015)
Read-outs that look alike come from different tables or passages of the source. Numbered stars: 1 amine (or outer) side, 2 acyl side, 3 side chain; on linkers, the order of the positions; unused ones are H or OH. Bridge positions count the residues as written; N and C are the ends. Side chains are listed from the residue outwards. Peptide text beside a SMILES is read from it. * marks the point of attachment. C20 diacid = O=C(O)CCCCCCCCCCCCCCCCCCC(=O)*; γGlu = O=C(O)[C@H](CCC(=O)[*:2])N[*:1]; AEEA = NCCOCCOCC(=O)O

What was measured:
Sprague Dawley (SD) rats = experiment: ASSAY (I) efficacy testing on appetite (food intake) using an ad libitum fed rat model; type: in vivo; conditions: rat, 30 nmol/kg
Summary of the method: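 Ad libitum fed SD rats (200–250 g) were housed singly on a reversed light/dark cycle and given one 0.01–3 mg/kg dose ip, po or sc just before lights-off, with 5–8 per dose group plus vehicle controls. Food intake was recorded hourly for 7 h, then at 24 h and sometimes 48 h; Grubbs outliers were excluded.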

[1] = ASSAY (IV) determination of solubility; type: physicochemical
Summary of the method: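 Polypeptide stock in water ([…]) was mixed 1:1 with 100 mM buffers: glycylglycine at pH 3.0, 4.0, 5.0 and bistrispropane at pH 6.0, 6.5, 7.0, 7.5, 8.0. After 18 hours at room temperature, samples were centrifuged and polypeptide concentration measured by UPLC.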

rat calcitonin receptor = target: T1, rat calcitonin receptor (Rattus norvegicus, UniProt P32214); experiment: ASSAY (VIII) binding to the rat calcitonin receptor; conditions: Table 7, read-out: rCTR bind IC50
T1 construct: expressed in transfected cells; host or cells: BHK tk'ts 13 (transient, FuGENE 6), membranes
T1 sequence (P32214 25-479 isoform P32214-2 limits assumed): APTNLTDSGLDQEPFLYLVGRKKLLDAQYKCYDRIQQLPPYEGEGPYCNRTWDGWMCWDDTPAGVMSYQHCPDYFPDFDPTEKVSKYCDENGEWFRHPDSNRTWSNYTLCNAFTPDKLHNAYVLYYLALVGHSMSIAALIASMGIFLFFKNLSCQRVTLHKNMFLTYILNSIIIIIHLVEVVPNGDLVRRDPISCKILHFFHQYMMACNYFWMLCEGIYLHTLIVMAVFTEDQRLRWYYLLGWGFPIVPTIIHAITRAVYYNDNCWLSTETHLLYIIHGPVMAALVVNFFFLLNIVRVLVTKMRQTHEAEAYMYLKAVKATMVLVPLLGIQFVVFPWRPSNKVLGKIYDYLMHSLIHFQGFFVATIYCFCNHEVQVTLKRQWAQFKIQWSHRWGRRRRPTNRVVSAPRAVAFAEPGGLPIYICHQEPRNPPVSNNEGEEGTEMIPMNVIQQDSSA
Summary of the method: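 Transfect BHK tk′ts 13 cells transiently with rat calcitonin receptor, culture in DMEM containing 10% FBS, collect cells about 48 hours later, then prepare membranes.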

[2] = bistrispropane buffer, pH 6.5, read-out: Solubility pH 6.5 Concentration
[3] = bistrispropane buffer, pH 7.5, read-out: Solubility pH 7.5 Concentration
[4] = bistrispropane buffer, pH 6.0, read-out: Solubility pH 6.0 Concentration
[5] = bistrispropane buffer, pH 7.0, read-out: Solubility pH 7.0 Concentration
[6] = bistrispropane buffer, pH 8.0, read-out: Solubility pH 8.0 Concentration
[7] = glycylglycine buffer, pH 3.0, read-out: Solubility pH 3.0 Concentration
[8] = glycylglycine buffer, pH 4.0, read-out: Solubility pH 4.0 Concentration
[9] = glycylglycine buffer, pH 5.0, read-out: Solubility pH 5.0 Concentration

| SMILES | Food intake reduction 0-24 h 30 nmol/kg (%) (Sprague Dawley (SD) rats) | Food intake reduction 24-48 h 30 nmol/kg (%) (Sprague Dawley (SD) rats) | solubility at 18 h [1, 2] [µM] | solubility at 18 h [1, 3] [µM] | solubility at 18 h [1, 4] [µM] | solubility at 18 h [1, 5] [µM] | solubility at 18 h [1, 6] [µM] | solubility at 18 h [1, 7] [µM] | solubility at 18 h [1, 8] [µM] | solubility at 18 h [1, 9] [µM] | IC50 (rat calcitonin receptor) [nM] |
| --- | --- | --- | --- | --- | --- | --- | --- | --- | --- | --- | --- |
| CC[C@H](C)[C@H](NC(=O)[C@H](C)NC(=O)CNC(=O)[C@H](Cc1ccccc1)NC(=O)[C@H](CC(N)=O)NC(=O)[C@@H]1CCCN1C(=O)[C@H](CO)NC(=O)[C@H](CO)NC(=O)[C@H](Cc1c[nH]cn1)NC(=O)[C@H](CCCNC(=N)N)NC(=O)[C@H](CC(C)C)NC(=O)[C@H](Cc1ccccc1)NC(=O)[C@H](CC(N)=O)NC(=O)[C@H](C)NC(=O)[C@H](CC(C)C)NC(=O)[C@H](CCCNC(=N)N)NC(=O)[C@H](CCC(N)=O)NC(=O)[C@@H](NC(=O)[C@H](C)NC(=O)[C@@H]1CSSC[C@H](NC(=O)[C@@H](N)CCCCNC(=O)COCCOCCNC(=O)COCCOCCNC(=O)CC[C@H](NC(=O)CCCCCCCCCCCCCCCCCCC(=O)O)C(=O)O)C(=O)N[C@@H](CC(N)=O)C(=O)N[C@@H]([C@@H](C)O)C(=O)N[C@@H](C)C(=O)N[C@@H]([C@@H](C)O)C(=O)N1)[C@@H](C)O)C(=O)N1CCC[C@H]1C(=O)N[C@@H](CO)C(=O)N[C@@H](CO)C(=O)N[C@H](C(=O)N[C@@H](CC(N)=O)C(=O)N[C@H](C(=O)NCC(=O)N[C@@H](CCCNC(=N)N)C(=O)N[C@@H](CC(N)=O)C(=O)N[C@H](C(=O)N[C@@H](Cc1ccc(O)cc1)C(N)=O)[C@@H](C)O)C(C)C)[C@@H](C)O [Example 95] (H-K([AEEA-AEEA-γGlu-C20 diacid])CNTATCATQRLANFLRHSSPNFGAIPSSTNVGRNTY-NH2; disulfide 2-7 (inferred); N-terminus assumed) | 22 | 0 | ≥ 200 | ≥ 200 | ≥ 200 | ≥ 200 | ≥ 200 | ≥ 200 | ≥ 200 | ≥ 200 | 389 |
| CC[C@H](C)[C@H](NC(=O)[C@H](C)NC(=O)CNC(=O)[C@H](Cc1ccccc1)NC(=O)[C@H](CC(N)=O)NC(=O)[C@@H]1CCCN1C(=O)[C@H](CO)NC(=O)[C@H](CO)NC(=O)[C@H](Cc1c[nH]cn1)NC(=O)[C@H](CCCNC(=N)N)NC(=O)[C@H](CC(C)C)NC(=O)[C@H](Cc1ccccc1)NC(=O)[C@H](CCC(=O)O)NC(=O)[C@H](C)NC(=O)[C@H](CC(C)C)NC(=O)[C@H](CCCNC(=N)N)NC(=O)[C@H](CCC(N)=O)NC(=O)[C@@H](NC(=O)[C@H](C)NC(=O)[C@@H]1CSSC[C@H](NC(=O)[C@@H](N)CCCCNC(=O)CC[C@H](NC(=O)CC[C@H](NC(=O)CCCCCCCCCCCCCCCCCCC(=O)O)C(=O)O)C(=O)O)C(=O)N[C@@H](CC(N)=O)C(=O)N[C@@H]([C@@H](C)O)C(=O)N[C@@H](C)C(=O)N[C@@H]([C@@H](C)O)C(=O)N1)[C@@H](C)O)C(=O)N1CCC[C@H]1C(=O)N[C@@H](CO)C(=O)N[C@@H](CO)C(=O)N[C@H](C(=O)N[C@@H](CC(N)=O)C(=O)N[C@H](C(=O)NCC(=O)N[C@@H](Cc1c[nH]cn1)C(=O)N[C@@H](CCC(=O)O)C(=O)N[C@H](C(=O)N[C@@H](Cc1ccc(O)cc1)C(N)=O)[C@@H](C)O)C(C)C)[C@@H](C)O [Example 104] (H-K([γGlu-γGlu-C20 diacid])CNTATCATQRLAEFLRHSSPNFGAIPSSTNVGHETY-NH2; disulfide 2-7; N-terminus assumed) | 31 | 28 | ≥ 200 | ≥ 200 | ≥ 200 | ≥ 200 | ≥ 200 | ≥ 200 | ≥ 200 | ≥ 200 | 498 |
| CC[C@H](C)[C@H](NC(=O)[C@H](C)NC(=O)CNC(=O)[C@H](Cc1ccccc1)NC(=O)[C@H](CC(N)=O)NC(=O)[C@@H]1CCCN1C(=O)[C@H](CO)NC(=O)[C@H](CO)NC(=O)[C@H](Cc1c[nH]cn1)NC(=O)[C@H](CCCNC(=N)N)NC(=O)[C@H](CC(C)C)NC(=O)[C@H](Cc1ccccc1)NC(=O)[C@H](CCC(=O)O)NC(=O)[C@H](C)NC(=O)[C@H](CC(C)C)NC(=O)[C@H](CCCNC(=N)N)NC(=O)[C@H](CCC(N)=O)NC(=O)[C@@H](NC(=O)[C@H](C)NC(=O)[C@@H]1CSSC[C@H](NC(=O)[C@@H](N)CCCCNC(=O)CC[C@H](NC(=O)CC[C@H](NC(=O)CCCCCCCCCCCCCCCCCCC(=O)O)C(=O)O)C(=O)O)C(=O)N[C@@H](CC(N)=O)C(=O)N[C@@H]([C@@H](C)O)C(=O)N[C@@H](C)C(=O)N[C@@H]([C@@H](C)O)C(=O)N1)[C@@H](C)O)C(=O)N1CCC[C@H]1C(=O)N[C@@H](CO)C(=O)N[C@@H](CO)C(=O)N[C@H](C(=O)N[C@@H](CC(N)=O)C(=O)N[C@H](C(=O)NCC(=O)N1CCC[C@H]1C(=O)N[C@@H](CCC(=O)O)C(=O)N[C@H](C(=O)N[C@@H](Cc1ccc(O)cc1)C(N)=O)[C@@H](C)O)C(C)C)[C@@H](C)O [Example 106] (H-K([γGlu-γGlu-C20 diacid])CNTATCATQRLAEFLRHSSPNFGAIPSSTNVGPETY-NH2; disulfide 2-7; N-terminus assumed) | 63 | 69 | ≥ 200 | ≥ 200 | ≥ 200 | ≥ 200 | ≥ 200 | ≥ 200 | ≥ 200 | ≥ 200 | 16.1 |
| CC[C@H](C)[C@H](NC(=O)[C@H](C)NC(=O)CNC(=O)[C@H](Cc1ccccc1)NC(=O)[C@H](CC(N)=O)NC(=O)[C@@H]1CCCN1C(=O)[C@H](CO)NC(=O)[C@H](CO)NC(=O)[C@H](Cc1c[nH]cn1)NC(=O)[C@H](CCCNC(=N)N)NC(=O)[C@H](CC(C)C)NC(=O)[C@H](Cc1ccccc1)NC(=O)[C@H](CCC(=O)O)NC(=O)[C@H](C)NC(=O)[C@H](CC(C)C)NC(=O)[C@H](CCCNC(=N)N)NC(=O)[C@H](CCC(N)=O)NC(=O)[C@@H](NC(=O)[C@H](C)NC(=O)[C@@H]1CSSC[C@H](NC(=O)[C@@H](N)CCCCNC(=O)CC[C@H](NC(=O)CCCCCCCCCCCCCCCCCCC(=O)O)C(=O)O)C(=O)N[C@@H](CC(N)=O)C(=O)N[C@@H]([C@@H](C)O)C(=O)N[C@@H](C)C(=O)N[C@@H]([C@@H](C)O)C(=O)N1)[C@@H](C)O)C(=O)N1CCC[C@H]1C(=O)N[C@@H](CO)C(=O)N[C@@H](CO)C(=O)N[C@H](C(=O)N[C@@H](CC(N)=O)C(=O)N[C@H](C(=O)NCC(=O)N[C@@H](CCCNC(=N)N)C(=O)N[C@@H](CCC(=O)O)C(=O)N[C@H](C(=O)N[C@@H](Cc1ccc(O)cc1)C(N)=O)[C@@H](C)O)C(C)C)[C@@H](C)O [Example 108] (H-K([γGlu-C20 diacid])CNTATCATQRLAEFLRHSSPNFGAIPSSTNVGRETY-NH2; disulfide 2-7; N-terminus assumed) | 29 | 0 | ≥ 200 | ≥ 200 | ≥ 200 | ≥ 200 | ≥ 200 | ≥ 200 | ≥ 200 | ≥ 200 | 86.1 |
